Test results published in patent publication US7309698B2, “Compositions for delivering bisphosphonates” (Emisphere Technologies, Inc., priority 2001, dated 2007).
“And” between values parts separate entries of the source, which are not always exact repeats. Equal entries are not always repeated.

How the values were obtained:
[1] = Solubility of delivery agent compound; assay type: physicochemical; conditions: 350 µl 2N NaOH + 650 µl water, aqueous buffer, thermodynamic from solid; 200 mg+350 μl 2N NaOH+650 μl H2O, pH=7.67
Method: The reaction mixture was warmed to 25° C. and stirred for 64 hours. The volatiles were removed in vacuo. The residue was stirred in 2N aqueous sodium hydroxide for one hour and acidified with 2M aqueous sulfuric acid. The solid was recrystallized twice from ethanol/water to give a tan solid. Isolation by filtration afforded 53.05 g of (52% yield) of 2-(4-(N-salicyloyl) aminophenyl) propionic acid. Solubility: 200 mg/mL (200 mg+350 μl 2N NaOH+650 μl H2O, pH=7.67). Anal. Calculated: C=67.36, H=5.3, N=4.91. Found: C=67.05, H=5.25, N=4.72.
A solution of 53.05 g (0.186 mol) of 2-(4-(N-salicyloyl)aminophenyl) propionic acid and 300 mL of ethanol was treated with 7.59 g (0.190 mol) of NaOH dissolved in 22 mL of water. The reaction mixture was stirred for 30 minutes at 25° C. and for 30 minutes at 0° C. The resulting pale yellow solid was isolated by filtration to give 52.61 g of sodium 2-(4-(N-salicyloyl) aminophenyl) propionate. Solubility: 200 mg/mL clear solution, pH=6.85. Anal. Calculated: C=60.45, H=5.45, N=3.92, Na=6.43. Found: C=60.84, H=5.87, N=3.85, Na=6.43. Melting point 236-238° C.

| melting point | solubility [1] [mg/mL] | SMILES |
| --- | --- | --- |
| 65 to 68 °C and 60 to 64 °C | – | O=C(O)CCCCCCCOc1ccccc1O [Compound 7, 8-(2-Hydroxyphenoxy)octanoic acid] |
| 236 to 238 °C | – | CC(C(=O)[O-])c1ccc(NC(=O)c2ccccc2O)cc1.[Na+] (stereo not drawn) [Compound 4 Sodium Salt, Sodium 2-(4-(N-salicyloyl)aminophenyl)propionate] |
| – | 200 | CC(C(=O)O)c1ccc(NC(=O)c2ccccc2O)cc1 (stereo not drawn) [Compound 4, 2-(4-(N-salicyloyl)aminophenyl)propionic acid] |
